Results taken from patent publication US20240350578A1, “FUNCTIONAL OUTCOMES AFTER SPINAL CORD INJURY” (priority 2023, published 2024).

What was measured:
[1] = test system: mixed neuronal culture; experiment: Neuronal LDH release from a mixed neuronal culture following incubation with NMDA; assay type: cell-based; conditions: peptide at 1 μM; mixed neuronal culture incubated with NMDA
Text: (§1) Despite the neuroprotective effectiveness of early generation apoE-mimetic peptides based on the primary structure of the apoE receptor-binding region, several factors have limited clinical translation. Among those factors are peptide size and production cost. In order to address these barriers, we developed a library of smaller, 5-amino acid peptides by linearizing the polar face of the receptor-binding region, which preserves peptide function without maintaining any primary sequence homology with the apoE receptor-binding region itself. Overall, 13 peptides were screened using in vitro assays of neuroinflammation and neuroprotection from excitotoxicity. […] The resulting smaller, 5-amino acid peptide increases the translational and therapeutic potential by reducing production cost, improving pharmacokinetics, and increasing CNS bioavailability. A comparison of the neuroprotective activity of CN-105 with VR-53, another pentapeptide from this library, as measured by LPS-induced inflammation from TNFα is shown in FIG. 1.

[2] = test system: spinal cord transection in female Sprague-Dawley rats; experiment: Spinal cord transection T9/T10: acute cystometry and body weight; assay type: in vivo
Experimental: FIG. 5, panel A is a graph showing the number of non-voiding bladder contractions during acute cystometry in urethane-anesthetized, female Sprague-Dawley rats that received spinal cord transection between the 9th and 10th thoracic vertebrae, followed by CN-105 (2 mg/kg; sci_cn105) or 0.9% saline (sci_saline) treatments at 30 minutes and 3 hours post injury by IV injection, and then every 24 hours by IP for 7 days.
FIG. 5, panel B is a graph showing the bladder capacity measured from a single-fill cystometric trial in urethane-anesthetized, female Sprague-Dawley rats that received spinal cord transection between the 9th and 10th thoracic vertebrae. Three baseline measurements were taken, and then three measurements were taken after administration of CN-105 (2 mg/kg; cn105).
We conducted terminal acute experiments in urethane-anesthetized, female Sprague-Dawley rats to quantify the chronic and acute effects of CN-105 on urodynamic function. Rats (n=6) received spinal cord transection (TX) at T9/T10 followed by CN-105 (2.0 mg/kg) or 0.9% saline treatment at 30 min and 3 hours (IV), then every 24 hours (IP) for 7 days post-injury. Collection of body weight and void volumes occurred 2-3 times daily during manual bladder expression throughout the duration of the study. For acute cystometry experiments, we placed a catheter into the bladder dome to measure pressure and an electromyography paddle on the EUS to measure muscle activity. During a single-fill cystometric trial, we infused the bladder with saline at a constant rate (54-84 ml/hr) until a distension-evoked bladder contraction voided urine or until overflow incontinence occurred. Following 3 baseline cystometric trials, we performed 3 trials after administration of CN-105.

[3] = test system: mixed glial culture; experiment: LPS-induced TNFα release from mixed glia cells in vitro; assay type: cell-based
Text: FIG. 1 is a graph showing the LPS-induced TNFα release from mixed glia cells in vitro from treatments with the CN-105 peptide and a comparison pentapeptide, VR-53.
as §1

[4] = test system: acquired brain injury; conditions: in vivo; cited from earlier work
[5] = test system: severe, contusive SCI; experiment: Severe, contusive SCI: GFAP staining at injury epicenter; assay type: in vivo, mouse; conditions: 0.05 mg/kg before and after SCI; 14 days after severe SCI
Experimental: FIG. 4 is a series of microscopy images showing the spinal cord sections at the injury epicenter stained for glial fibrillary acidic protein (GFAP) in a mouse after a severe SCI.
In a separate experiment, we delivered CN-105 (0.05 mg/kg) before and after SCI. To determine the effect of CN-105 treatment on neuropathology 14 days after severe SCI, we stained spinal cord sections at the injury epicenter for glial fibrillary acidic protein (GFAP; FIG. 4), which labels astrocytes, including those that form the glial scar around the injury. In this approach, spared tissue can be differentiated from the lesion core by the presence (spared tissue) or absence (lesion core) of GFAP staining (Duncan et al., 2018).

[6] = test system: moderate, contusive SCI in adult, female C57BL/6J mice; experiment: Moderate, contusive SCI at T9: Basso Mouse Scale and von Frey hair test; assay type: in vivo
Experimental: FIG. 3 are graphs showing the locomotor performance recovery (via Basso Mouse Scale) in adult, female C57BL/6J mice after a moderate, incomplete SCI at the 9th thoracic vertebrae. The mice were subsequently treated with either 2.0 mg/kg CN-105 or a control vehicle intravenously 30 minutes post-injury, and then intraperitoneally (IP) at 3 hours, 6 hours, and then every 24 hours post-injury for three days. FIG. 3, panel A is a graph showing the number of consistent, weight-supported hindlimb steps at 21-days post-injury; and FIG. 3, panel B is a graph showing the number of animals capable of performing coordinated locomotion at 21-days post-injury.
To determine whether CN-105 can improve sensorimotor outcomes following a moderate, incomplete SCI, we conducted experiments in adult, female C57BL/6J mice. Here, we delivered CN-105 (2.0 mg/kg) or Vehicle at 30 minutes (intravenous, IV), at 3 hours and 6 hours (intraperitoneal, IP), then every 24 hours (IP) for three days following a moderate, contusive SCI at the level of the 9th thoracic vertebrae (T9). We tracked locomotor recovery using the Basso Mouse Scale (BMS) (Basso et al., 2006) and assessed for neuropathic pain or allodynia using the von Frey hair test.

[7] = target: α7 nicotinic acetylcholine receptors (Homo sapiens, UniProt P36544); conditions: cited from earlier work
α7 nicotinic acetylcholine receptors, sequence (P36544 23-502): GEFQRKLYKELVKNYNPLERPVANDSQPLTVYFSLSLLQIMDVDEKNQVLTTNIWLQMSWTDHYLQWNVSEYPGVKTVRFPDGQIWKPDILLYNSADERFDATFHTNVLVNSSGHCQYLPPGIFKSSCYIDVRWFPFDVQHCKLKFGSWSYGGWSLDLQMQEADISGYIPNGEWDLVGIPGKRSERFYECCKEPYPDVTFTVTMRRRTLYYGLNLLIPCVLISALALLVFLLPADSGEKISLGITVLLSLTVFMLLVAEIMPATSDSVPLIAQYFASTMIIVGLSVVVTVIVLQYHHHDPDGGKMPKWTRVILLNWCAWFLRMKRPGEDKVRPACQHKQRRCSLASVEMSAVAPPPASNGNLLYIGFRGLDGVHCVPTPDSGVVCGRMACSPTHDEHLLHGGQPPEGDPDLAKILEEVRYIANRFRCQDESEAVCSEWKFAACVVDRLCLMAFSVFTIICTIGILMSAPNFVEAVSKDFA

[8] = Pharmacokinetic evaluation of radiolabeled CN-105 in uninjured male CD-1 mice; assay type: in vivo; conditions: single intravenous bolus 1.98 mg/kg
Experimental: FIG. 2, panel A is a graph showing the concentration of CN-105 in uninjured, male CD-1 mice after a single intravenous injection bolus dose of 1.98 mg/kg. FIG. 2, panel B is a graph showing the CN-105 retention in the brain and the spinal cord, calculated by dividing the concentration at 24 hours (C24) by the peak concentration (Cmax), 24 hours after a single intravenous injection bolus dose of 1.98 mg/kg. FIG. 2, panel C is a graph showing the total CN-105 exposure in the brain and the spinal cord, calculated using the area under the curve (AUC), for 48 hours after a single intravenous injection bolus dose of 1.98 mg/kg.
In collaboration with XenoBiotic Laboratories, Inc., we conducted a pharmacokinetic evaluation of radiolabled CN-105 in uninjured, male CD-1 mice. After a single intravenous bolus dose of CN-105 (1.98 mg/kg), peak concentration of CN-105 in the spinal cord occurred 30 minutes post injection (FIG. 2, panel A).
However, tissue retention of CN-105 at 24 hours (FIG. 2, panel B) and total exposure (FIG. 2, panel C) to CN-105 over 48 hours post injection was greatest in the spinal cord. Tissue retention at 24 hours post injection was quantified by dividing the CN-105 concentration at 24 hours (C24) by the peak CN-105 concentration (Cmax) and multiplying by 100.
The total exposure to CN-105 was calculated using the area under the curve (AUC) from the time of injection to 48 hours post injection (AUC0-48) and is expressed in nanogram equivalents*hour per gram. […] Increased CN-105 access to the spinal cord is consistent with greater passive permeability in the intact spinal cord (Winkler et al., 2012).

[9] = SCI rats, 2.0 mg/kg chronic treatment, cystometry

## Ac-ASHLRKLRKRLL-NH2 [AL-10-1]
[1]
  Neuroprotection (reduction in neuronal LDH release): −6.21%

## Ac-RARRL-NH2 [RL-S-2]
[1]
  Neuroprotection (reduction in neuronal LDH release): −5.23%

## Ac-RHKKL-NH2 [RL-S-1]
[1]
  Neuroprotection (reduction in neuronal LDH release): −2.85%

## Ac-RHKRR-NH2 [RR-S-1]
[1]
  Neuroprotection (reduction in neuronal LDH release): 7.5%

## Ac-RSKKL-NH2 [RL-S-3]
[1]
  Neuroprotection (reduction in neuronal LDH release): −20.80%

## Ac-RSKRR-NH2 [RR-S-2]
[1]
  Neuroprotection (reduction in neuronal LDH release): 0.08%

## Ac-VARKL-NH2 [VL-S-1]
[1]
  Neuroprotection (reduction in neuronal LDH release): 24.48%

## Ac-VARRL-NH2 [VL-S-3]
[1]
  Neuroprotection (reduction in neuronal LDH release): 11.50%

## Ac-VSKKR-NH2 [VR-54]
[1]
  Neuroprotection (reduction in neuronal LDH release): −15.91%

## Ac-VSKRR-NH2 [VR-53]
[1]
  Neuroprotection (reduction in neuronal LDH release): 7.03%

## Ac-VSRKR-NH2 [VR-52]
[1]
  Neuroprotection (reduction in neuronal LDH release): 12.63%

## Ac-VSRRR-NH2 [CN-105]
[1]
  Neuroprotection (reduction in neuronal LDH release): 19.14%
[2]; 2.0 mg/kg IV 30 min and 3 h, then IP every 24 h for 7 days
  Post-injury weight loss: prevented post-injury weight loss
[2]; [9]
  Bladder capacity (BC): 11.83 ± 2.00 mL
  Non-voiding contractions (NVCs): 8.0±2.48
  Voiding efficiency (VE): 3.31±1.83%
[2]; acute dosing 2 mg/kg in chronically treated rats, p<0.05
  Bladder capacity after acute dosing: may decrease bladder capacities
[2]; extended treatment, p<0.05
  Neurogenic detrusor overactivity (NDO), post-hoc analysis: may decrease NDO
[3]
  Suppression of LPS-induced inflammation (TNFα): suppress LPS-induced inflammation
[4]
  Brain exposure relative to previous peptides: up to five times higher than previous peptides
  Histological and behavioral outcomes following acquired brain injury: improves both histological and behavioral outcomes
[5]
  Lesion size and tissue damage (GFAP staining): appeared to reduce the lesion size and tissue damage
[6]; 2.0 mg/kg
  Sensory function / allodynia (von Frey hair test): trend toward improved sensory function
[6]; 2.0 mg/kg IV 30 min, IP 3 h, 6 h, then every 24 h for three days, 21 days after injury, p<0.05
  Animals capable of consistently taking weight-supported steps (BMS): significantly more animals
[6]; 2.0 mg/kg, 21 days after injury, p<0.05
  Animals performing coordinated locomotion (BMS): significantly more animals
[7]
  Binding to α7 nicotinic acetylcholine receptors: binds
[8]; 0-48 hours
  Total exposure (AUC0-48), spinal cord vs brain: spinal cord had greater total exposure to CN-105 than the brain
[8]; 24 hours post injection
  Tissue retention at 24 hours (C24/Cmax x 100), spinal cord vs brain: spinal cord retained a higher percentage of CN-105 than the brain
[8]; spinal cord
  Time of peak concentration in the spinal cord: 30 min
